Test results as given in patent publication US9616025B2, “Compressed tablet containing Δ9-tetrahydrocannabinol, method for its manufacture and use of such tablet in oral treatment” (Echo Pharmaceuticals B.V., priority 2013, dated 2017).
Where two headings read alike, the source gives them in different places.

Experiments:
[1] = cited from earlier work; for reported tmax-values: previous studies
[2] = Rate of dissolution of THC, Ph. Eur. 2.9.3, 1 wt % SDS in water pH 7; format: physicochemical; conditions: 5 mg THC, pH 7, 36-41° C.
Protocol: The rate of dissolution of THC from the compressed tablets described in Example 2 was tested according to European Pharmacopeia (Ph. Eur. 2.9.3) for oral tablets (5 mg THC). The rate of dissolution of pure THC (5 mg) was also measured according to the same method for comparison.
The dissolution medium consisted of a solution of 1 wt % SDS in water. The pH of the medium had been adjusted to pH 7 with diluted HCl. During the experiments, the temperature of the dissolution media was maintained between 36 and 41° C. under stirring.
After dropping the tablets in the dissolution medium, samples were taken at various time intervals with a disposable syringe. The samples were filtered immediately over a syringe filter into a HPLC vial and analyzed by HPLC.
Tablets were prepared as in Example 2, except that the sucrose fatty ester (SML) was substituted by glyceryl monostearate (GMS). Dissolution tests as described in example 3 were performed with these tablets and the tablets described in Example 2.

SMILES	reported tmax-values [1] [h]	Plasma THC maximum concentrations ([1]; after a 20 mg dose of oral THC (Ohlsson 1980)) [µg/L]	bioavailability ([1]; inhaled (Ohlsson 1982))	time of peak concentrations post dose ([1]; oral) [h]	bioavailability ([1]; orally administered (Ohlsson 1982))	% (w/w) of THC dissolved ([2]; 1 min)	% (w/w) of THC dissolved ([2]; 4 min)	% (w/w) of THC dissolved ([2]; 8 min)	% (w/w) of THC dissolved ([2]; 15 min)	time to maximal concentration of the active metabolite 11-OHTHC ([1]; published) [min]
CCCCCCC(C)(C)c1cc(O)c2c(c1)OC(C)(C)C1CCC(=O)CC21 (centres unmarked) [nabilone]	2 to 4	–	–	–	–	–	–	–	–	–
CCCCCc1cc(O)c2c(c1)OC(C)(C)[C@@H]1CCC(C)=C[C@@H]21 [THC, Δ9-tetrahydrocannabinol]	1 to 4	4.4 to 11.0	up to 27%	1 to 5	approximately 6%	1.0 % (w/w)	3.5 % (w/w)	5.8 % (w/w)	10.2 % (w/w)	–
CCCCCc1cc(O)c2c(c1)OC(C)(C)[C@@H]1CCC(C)=C[C@@H]21 [dronabinol]	–	–	–	–	–	–	–	–	–	120 to 204
